Assay results: US10947213B1 (Merck Patent GmbH, priority 2015, dated 2021)
Structures can show the parent of a compound that is named as a salt.

target: T1, TLR7/NFKb HEK cells (Homo sapiens, UniProt Q9NYK1); assay: HEK Cell Assay (TLR7/NFKb reporter, Steady-Glo luciferase readout); type: cell-based; settings: 30 min compound preincubation, then R*48 agonist for 5 hours, read-out: Potency
T1 construct: expressed in transfected cells; host or cells: HEK cells (TLR7/NFKb reporter line)
T1 sequence (Q9NYK1 27-1049): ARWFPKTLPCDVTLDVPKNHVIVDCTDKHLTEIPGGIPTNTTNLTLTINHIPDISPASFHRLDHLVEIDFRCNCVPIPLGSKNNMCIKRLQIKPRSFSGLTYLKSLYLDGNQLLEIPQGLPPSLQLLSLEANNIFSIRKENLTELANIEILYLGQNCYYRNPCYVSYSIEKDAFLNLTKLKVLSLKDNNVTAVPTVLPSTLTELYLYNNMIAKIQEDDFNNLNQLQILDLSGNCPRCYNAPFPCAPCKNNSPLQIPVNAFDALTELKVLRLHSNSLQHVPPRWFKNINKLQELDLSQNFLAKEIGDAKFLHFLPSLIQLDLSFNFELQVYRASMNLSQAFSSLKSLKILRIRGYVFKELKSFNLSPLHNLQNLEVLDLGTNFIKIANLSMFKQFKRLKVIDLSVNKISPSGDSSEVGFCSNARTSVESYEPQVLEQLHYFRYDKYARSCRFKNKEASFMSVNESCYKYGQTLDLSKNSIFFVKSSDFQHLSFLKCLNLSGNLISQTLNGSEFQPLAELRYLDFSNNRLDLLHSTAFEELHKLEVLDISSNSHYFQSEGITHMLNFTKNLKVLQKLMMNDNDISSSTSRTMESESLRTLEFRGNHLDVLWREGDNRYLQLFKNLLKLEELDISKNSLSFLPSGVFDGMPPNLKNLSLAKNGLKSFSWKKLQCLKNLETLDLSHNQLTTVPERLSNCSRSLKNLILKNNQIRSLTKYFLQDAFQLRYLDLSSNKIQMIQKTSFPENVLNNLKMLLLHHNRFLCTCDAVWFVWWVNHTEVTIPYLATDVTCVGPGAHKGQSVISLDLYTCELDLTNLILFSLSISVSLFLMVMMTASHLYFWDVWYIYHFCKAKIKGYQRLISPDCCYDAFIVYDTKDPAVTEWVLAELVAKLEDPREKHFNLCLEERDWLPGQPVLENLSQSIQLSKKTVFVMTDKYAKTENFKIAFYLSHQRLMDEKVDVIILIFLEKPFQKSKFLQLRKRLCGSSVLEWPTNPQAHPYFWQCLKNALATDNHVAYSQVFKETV
Method in brief: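 Steady-Glo luminescence after 5 h stimulation with R*48 agonist, following 30 min compound preincubation. Assay run in HEK cells carrying a TLR7/NFKb luciferase reporter, plated at 5000 cells/well and grown 24 h at 37° C (10% CO2) before treatment.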

Row | IC50 [nM] | Structure (SMILES)
1 | 1000 to 10000 | C[C@H]1C[C@@H](NC(=O)CN(C)C)CN(c2ccnc3nccnc23)C1 [Compound 33, 2-(dimethylamino)-N-((3R,5S)-5-methyl-1-(pyrido[2,3-b]pyrazin-8-yl)piperidin-3-yl)acetamide]
2 | > 10000 | C[C@H]1C[C@@H](NC(=O)CN)CN(c2ccnc3nccnc23)C1 [Compound 34, 2-amino-N-((3R,5S)-5-methyl-1-(pyrido[2,3-b]pyrazin-8-yl)piperidin-3-yl)acetamide]
3 | < 1000 | C[C@H]1C[C@@H](NC(=O)CN)CN(c2ccc(C#N)c3nccnc23)C1 [Compound 35, 2-amino-N-((3R,5S)-1-(8-cyanoquinoxalin-5-yl)-5-methylpiperidin-3-yl)acetamide hydrochloride]
4 | 1000 to 10000 | C[C@H]1C[C@@H](NC(=O)C2(C)COC2)CN(c2ccc(C#N)c3nccnc23)C1 [Compound 36, N-((3R,5S)-1-(8-cyanoquinoxalin-5-yl)-5-methylpiperidin-3-yl)-3-methyloxetane-3-carboxamide]
5 | > 10000 | C[C@H]1C[C@@H](NC(=O)C2(C)COC2)CN(c2ccnc3nccnc23)C1 [Compound 37, 3-methyl-N-((3R,5S)-5-methyl-1-(pyrido[2,3-b]pyrazin-8-yl)piperidin-3-yl)oxetane-3-carboxamide]
6 | < 1000 | C[C@H]1C[C@@H](NCC#N)CN(c2ccc(C#N)c3nccnc23)C1 [Compound 38, 8-((3R,5S)-3-(cyanomethylamino)-5-methylpiperidin-1-yl)quinoxaline-5-carbonitrile]
7 | 1000 to 10000 | C[C@H]1C[C@@H](NCC#N)CN(c2ccnc3nccnc23)C1 [Compound 39, 2-((3R,5S)-5-methyl-1-(pyrido[2,3-b]pyrazin-8-yl)piperidin-3-ylamino)acetonitrile hydrochloride]
8 | < 1000 | C[C@H]1C[C@@H](NC(=O)CC(C)(C)C)CN(c2ccc(C#N)c3nccnc23)C1 [Compound 40, N-((3R,5S)-1-(8-cyanoquinoxalin-5-yl)-5-methylpiperidin-3-yl)-3,3-dimethylbutanamide]
9 | 1000 to 10000 | C[C@H]1C[C@@H](NC(=O)CC(C)(C)C)CN(c2ccnc3nccnc23)C1 [Compound 41, 3,3-dimethyl-N-((3R,5S)-5-methyl-1-(pyrido[2,3-b]pyrazin-8-yl)piperidin-3-yl)butanamide]
10 | > 10000 | C[C@H]1C[C@@H](N2CC[C@@H](N)C2=O)CN(c2ccnc3nccnc23)C1 [Compound 42, (3R)-3-amino-1-[(3R,5S)-5-methyl-1-[pyrido[2,3-b]pyrazin-8-yl]piperidin-3-yl]pyrrolidin-2-one]
11 | > 10000 | C[C@@H]1CN(c2ccnc3nccnc23)C[C@H](C)O1 [Compound 43, (2S,6R)-2,6-dimethyl-4-(pyrido[2,3-b]pyrazin-8-yl)morpholine]
12 | < 1000 | C[C@@H]1CN(c2ccc(C#N)c3nccnc23)C[C@H](C)O1 [Compound 44, 8-((2R,6S)-2,6-dimethylmorpholino)quinoxaline-5-carbonitrile]
13 | > 10000 | C[C@@H]1CN(c2ccnc3ccccc23)C[C@H](C)O1 [Compound 45, (2S,6R)-2,6-dimethyl-4-(quinolin-4-yl)morpholine]
14 | > 10000 | Cc1cc2c(N3C[C@@H](C)O[C@@H](C)C3)ccnc2n1C [Compound 46, (2S,6R)-4-(1,2-dimethyl-1H-pyrrolo[2,3-b]pyridin-4-yl)-2,6-dimethylmorpholine]
15 | 1000 to 10000 | C[C@@H]1CN(c2ccnc3nccnc23)C[C@H](CN2CCN(C)CC2)O1 [Compound 47, (2R,6S)-2-methyl-6-((4-methylpiperazin-1-yl)methyl)-4-(pyrido[2,3-b]pyrazin-8-yl)morpholine]
16 | 1000 to 10000 | C[C@@H]1CN(c2ccnc3nccnc23)C[C@H](CN2CCNCC2)O1 [Compound 48, (2R,6S)-2-methyl-6-(piperazin-1-ylmethyl)-4-(pyrido[2,3-b]pyrazin-8-yl)morpholine]

Row | IC50 [nM] | Structure (SMILES)
17 | < 1000 | C[C@@H]1CN(c2ccc(C#N)c3nccnc23)C[C@H](CN2CCN(C)CC2)O1 [Compound 50, 8-((2R,6S)-2-methyl-6-((4-methylpiperazin-1-yl)methyl)morpholino)quinoxaline-5-carbonitrile]
18 | < 1000 | CCCN1CCN(C[C@H]2CN(c3ccnc4nccnc34)C[C@@H](C)O2)CC1 [Compound 52, (2R,6S)-2-methyl-6-((4-propylpiperazin-1-yl)methyl)-4-(pyrido[2,3-b]pyrazin-8-yl)morpholine]
19 | < 1000 | C[C@@H]1CN(c2ccnc3nccnc23)C[C@H](CN2CCN(C)[C@@H](C)C2)O1 [Compound 53, (2S,6R)-2-(((S)-3,4-dimethylpiperazin-1-yl)methyl)-6-methyl-4-(pyrido[2,3-b]pyrazin-8-yl)morpholine]
20 | < 1000 | C[C@@H]1CN(c2ccnc3nccnc23)C[C@H](CN2CCN(C)C(C)(C)C2)O1 [Compound 54, (2R,6S)-2-methyl-4-(pyrido[2,3-b]pyrazin-8-yl)-6-((3,3,4-trimethylpiperazin-1-yl)methyl)morpholine]
21 | < 1000 | C[C@@H]1CN(c2ccnc3nccnc23)C[C@H](CN2CCC(N(C)C)CC2)O1 [Compound 55, N,N-dimethyl-1-(((2S,6R)-6-methyl-4-(pyrido[2,3-b]pyrazin-8-yl)morpholin-2-yl)methyl)piperidin-4-amine]
22 | 1000 to 10000 | C[C@@H]1CN(c2ccnc3nccnc23)C[C@H](CN2CCC(N3CCCC3)CC2)O1 [Compound 56, (2R,6S)-2-methyl-4-(pyrido[2,3-b]pyrazin-8-yl)-6-((4-(pyrrolidin-1-yl)piperidin-1-yl)methyl)morpholine]
23 | < 1000 | C[C@@H]1CN(c2ccnc3nccnc23)C[C@H](CN2CCC(N3CCCCC3)CC2)O1 [Compound 58, (2S,6R)-2-(1,4′-bipiperidin-1′-ylmethyl)-6-methyl-4-(pyrido[2,3-b]pyrazin-8-yl)morpholine]
24 | < 1000 | C[C@@H]1CN(c2ccc(C#N)c3nccnc23)C[C@H](CN2CCC(N3CCCCC3)CC2)O1 [Compound 59, 8-((2S,6R)-2-(1,4′-bipiperidin-1′-ylmethyl)-6-methylmorpholino)quinoxaline-5-carbonitrile]
25 | 1000 to 10000 | C[C@@H]1CN(c2ccnc3nccnc23)C[C@H](CN2CCC(N3CCOCC3)CC2)O1 [Compound 60, (2R,6S)-2-methyl-6-((4-morpholinopiperidin-1-yl)methyl)-4-(pyrido[2,3-b]pyrazin-8-yl)morpholine]
26 | 1000 to 10000 | CC(C)C(=O)NC1CCN(C[C@H]2CN(c3ccnc4nccnc34)C[C@@H](C)O2)CC1 [Compound 61, N-(1-(((2S,6R)-6-methyl-4-(pyrido[2,3-b]pyrazin-8-yl)morpholin-2-yl)methyl)piperidin-4-yl)isobutyramide]
27 | 1000 to 10000 | CCNC(=O)C1CCN(C[C@H]2CN(c3ccnc4nccnc34)C[C@@H](C)O2)CC1 [Compound 62, N-ethyl-1-(((2S,6R)-6-methyl-4-(pyrido[2,3-b]pyrazin-8-yl)morpholin-2-yl)methyl)piperidine-4-carboxamide]
28 | > 10000 | C[C@@H]1CN(c2ccnc3nccnc23)C[C@H](C(=O)N2CC(N)C2)O1 [Compound 63, (3-aminoazetidin-1-yl)((2R,6R)-6-methyl-4-(pyrido[2,3-b]pyrazin-8-yl)morpholin-2-yl)methanone]
29 | 1000 to 10000 | C[C@@H]1CN(c2ccnc3nccnc23)C[C@H](C(=O)N[C@@H]2CCCNC2)O1 [Compound 64, (2R,6R)-6-methyl-N—((R)-piperidin-3-yl)-4-(pyrido[2,3-b]pyrazin-8-yl)morpholine-2-carboxamide]
30 | < 1000 | C[C@@H]1CN(c2ccnc3nccnc23)C[C@H](C(=O)NC2CCN(C)CC2)O1 [Compound 65, (2R,6R)-6-methyl-N-(1-methylpiperidin-4-yl)-4-(pyrido[2,3-b]pyrazin-8-yl)morpholine-2-carboxamide]
31 | < 1000 | C[C@H]1C[C@@H](N)CN(c2ccc(C(F)(F)F)c3ncccc23)C1 [Compound 66, (3R,5S)-5-methyl-1-[8-(trifluoromethyl)quinolin-5-yl]piperidin-3-amine]
32 | < 1000 | COCCN[C@@H]1C[C@H](C)CN(c2ccc(OC)c3nccnc23)C1 [Compound 67, (3R,5S)—N-(2-methoxyethyl)-1-(8-methoxyquinoxalin-5-yl)-5-methylpiperidin-3-amine]

Row | Structure (SMILES) | IC50 [nM]
33 | C[C@@H]1CN(c2ccc(C#N)c3nccnc23)C[C@H](CN2CCC(N3CCCC3)CC2)O1 [Compound 57, 8-((2R,6S)-2-methyl-6-((4-(pyrrolidin-1-yl)piperidin-1-yl)methyl)morpholino)quinoxaline-5-carbonitrile] | < 1000
